Columns and labels:
dephosphorylated FGFR1 = dephosphorylated FGFR1 (Homo sapiens (Human), UniProt P11362); assay: FGFR Enzyme Binding Assay (HTRF tracer displacement), FGFR1; details: 5 nM dephosphorylated FGFR1, 60 minute incubation at 22° C.; read-out: FGFR1 Enz Binding IC50
Description: The potency of compounds inhibiting human isoforms of FGFR kinase was determined using Life Technologies' Homogeneous Time Resolved Fluorescence (HTRF)-based binding assay technology. An incubation was conducted with either 5 nM dephosphorylated FGFR1 (Array Biopharma, p1702; SEQ ID NO: 1, amino acids 458 to 765, dephosphorylated by co-expression with PTP1b (protein tyrosine phosphatase 1B)), 5 nM dephosphorylated FGFR2 (Life Technologies, Cat. No. PV4106 that had been dephosphorylated with Lambda protein phosphatase (New England Biolabs, cat #P0753)) or 5 nM phosphorylated FGFR3 (Array Biopharma, p1836; SEQ ID NO: 5, amino acids 449 to 759), 50 nM Kinase Tracer 236 (Life Technologies Cat. No. PR9078A), 2 nM Biotin-anti-6HIS (Life Technologies Cat. No. PV6090) and 2 nM Europium-Streptavidin (Life Technologies Cat. No. PV6025) along with test compound in a buffer consisting of 50 mM HEPES ((4-(2-hydroxyethyl)-1-piperazineethanesulfonic acid, pH 7.5), 5 mM MgCl2, 0.005% Triton X-100, 1 mM DTT, 1 mM NaVO4 and 2% DMSO in a final volume of 12 μL Compounds were typically prepared as a 3-fold or 4-fold serial dilution in DMSO and added to the assay to give the appropriate final concentration. After a 60 minute incubation at 22° C., the extent of tracer displacement was determined using a PerkinElmer EnVision multimode plate reader via HTRF dual wavelength detection, and the percent of control (POC) was calculated using a ratiometric emission factor. One hundred POC was determined using no test compound, and 0 POC was determined in the presence of 1 μM of an appropriate control inhibitor. A 4-parameter logistic curve was fit to the POC values as a function of the concentration of compound, and the IC50 value was the point where the best-fit curve crossed 50 POC.

human wild type FGFR1 = human wild type FGFR1 (Homo sapiens (Human), UniProt P11362); assay: FGFR1 pERK Cell Assay; assay type: cell-based; details: HEK-293 cells, 1 hour compound, 100 ng/ml human FGF-acidic; maximum concentration 5 μM
Description: HEK-293 cells transfected with doxycycline(dox)-inducible human wild type FGFR1 (SEQ ID NO: 1) were plated in a collagen or poly-D-lysine coated 96 well flat bottom plates at 4×10^5 cells/well in complete Dulbecco's Modified Eagle Medium (DMEM) containing 10% FBS and 1 μg/ml doxycycline and allowed to attach for 24 h at 37° C., 5% CO2. Cells were treated with compound using 1:3 serial dilutions with a maximum final concentration of 5 μM. Compound was incubated on cells for 1 hour at 37° C., 5% CO2. Cells were then stimulated with a final concentration of 100 ng/ml human FGF-acidic (R&D Systems Cat number 232-FA/CF) for 5 minutes at 37° C., 5% CO2. Medium was removed, and cells were lysed with lysis buffer containing phosphatase and protease inhibitors. Phospho ERK1/2 was measured using the Meso Scale Discovery sandwich assay (Meso Scale Discovery cat. no. K151DWD). The assay captures phospho ERK1/2 and detects with a sulfo-tagged total ERK1/2 antibody. The chemiluminescent signal was read on the Sector Imager Plate reader. 100 POC was determined using no test compound and 0 POC was determined using a control compound. The POC values were fit to a 4-parameter logistic curve as a function of the concentration of the compound, and the IC50 value is the point where the curve crosses 50 POC.

[1] = molecular target: recombinant human FGFR2 cytoplasmic domain (Homo sapiens (Human), UniProt P21802); assay: FGFR Enzyme Activity Assay (LanthaScreen TR-FRET), FGFR2; assay type: biochemical; details: 15 μM ATP, 20 minute incubation; read-out: FGFR2 Enz FRET IC50
Description: FGFR2 kinase activity was measured by the Invitrogen LanthaScreen™ Assay technology which directly measures the amount of substrate phosphorylation by TR-FRET using a flourescently-labeled peptide and Europium-labeled antibody. Briefly, 200 pM His-tagged recombinant human FGFR2 cytoplasmic domain (amino acids 403-822) (Life Technologies Cat. No. PR5332A) was incubated with 100 nM Alexa Fluor® 647-Poly-GT Peptide Substrate (Life Technologies Cat. No. PV5836) and 15 μM ATP along with test compound in a buffer consisting of 250 mM HEPES, 25 mM MgCl2, 0.05% TritonX-100, pH 7.5, and 2% DMSO. Compounds were typically prepared in a threefold serial dilution in DMSO and added to the assay to give the appropriate final concentration. After a 20 minute incubation at 22° C., an equal volume of 2 nM LanthaScreen® Eu-PY20 Antibody (Life Technologies Cat. No. PV5691) and 10 mM EDTA were added to quench the kinase reaction and start the detection reaction. After an additional 60 minute incubation at 22° C., the reaction was measured using a PerkinElmer EnVision multimode plate reader via TR-FRET dual wavelength detection, and the percent of control (POC) calculated using a ratiometric emission factor. 100 POC was determined using no test compounds and 0 POC was determined using no enzyme. The POC values were fit to a 4-parameter logistic curve as a function of the concentration of the compound, and the IC50 value is the point where the curve crosses 50 POC.

FGFR1 = FGFR1 (Homo sapiens (Human), UniProt P11362); assay: LC/MS FGFR1 kobs assay (covalent modification); assay type: biochemical; details: 500 nM FGFR1, 3 μM compound
Description: The LC/MS FGFR1 and FGFR3 kobs assays were conducted as follows. 500 nM FGFR1 (Array BioPharma construct p1702; SEQ ID NO: 1, amino acids 458-765) or FGFR3 (Array BioPharma construct p1700; SEQ ID NO: 5, amino acids 449-759) were incubated with 3 μM compound in 25 mM HEPES (4-(2-hydroxyethyl)-1-piperazineethanesulfonic acid), pH 7.4, 5 mM MgCl2, 150 mM NaCl, 0.5 mM TCEP (tris(2-carboxyethyl) phosphine), and 2% DMSO in a total volume of 20 μL. At each time point, the reaction was quenched with 20 μL of 0.4% formic acid. The extent of protein modification by each compound was determined by LC/MS on an Agilent Technologies 6520 Q-TOF LC/MS. Protein signals were then automatically deconvoluted using Agilent Masshunter software. Deconvoluted mass signals were exported to Tibco Spotfire data analysis program for further processing and normalization.
Data analysis included five steps. First, the signals for the “DMSO Controls” were analyzed to determine the percent of signal associated with unmodified FGFR1 or FGFR3 at each time point. Next, the percent of the signal associated with the covalent modification was determined. Third, the average nonmodified “DMSO Control” signal was used to normalize the modified protein signals at each time point. The percent of unmodified protein was fit to an exponential decay model where A0 is the Percent Unmodified at the start of the reaction, and kobs is the observed rate constant over the time period.

Chain of human wild type FGFR1 (P11362 22-822): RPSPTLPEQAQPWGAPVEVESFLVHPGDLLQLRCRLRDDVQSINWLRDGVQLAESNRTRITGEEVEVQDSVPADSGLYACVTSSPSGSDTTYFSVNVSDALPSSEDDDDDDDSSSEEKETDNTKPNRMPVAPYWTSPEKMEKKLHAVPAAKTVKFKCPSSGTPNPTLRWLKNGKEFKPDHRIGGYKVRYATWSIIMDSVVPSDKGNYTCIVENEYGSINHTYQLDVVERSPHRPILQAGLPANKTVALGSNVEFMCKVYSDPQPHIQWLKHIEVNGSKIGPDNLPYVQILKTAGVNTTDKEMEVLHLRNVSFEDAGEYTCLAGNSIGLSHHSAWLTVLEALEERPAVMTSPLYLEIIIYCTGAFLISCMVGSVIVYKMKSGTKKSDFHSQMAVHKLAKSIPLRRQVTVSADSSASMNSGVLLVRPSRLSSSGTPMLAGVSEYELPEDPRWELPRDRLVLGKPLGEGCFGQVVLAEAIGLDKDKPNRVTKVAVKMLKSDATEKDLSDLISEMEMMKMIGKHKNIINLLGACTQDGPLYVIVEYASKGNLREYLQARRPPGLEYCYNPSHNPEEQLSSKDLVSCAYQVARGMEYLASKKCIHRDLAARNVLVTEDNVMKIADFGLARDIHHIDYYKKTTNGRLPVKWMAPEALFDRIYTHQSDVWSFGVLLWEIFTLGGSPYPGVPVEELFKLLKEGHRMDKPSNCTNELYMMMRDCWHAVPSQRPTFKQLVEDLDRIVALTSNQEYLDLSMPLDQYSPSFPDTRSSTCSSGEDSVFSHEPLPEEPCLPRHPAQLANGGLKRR
Chain of FGFR1 (P11362 458-765): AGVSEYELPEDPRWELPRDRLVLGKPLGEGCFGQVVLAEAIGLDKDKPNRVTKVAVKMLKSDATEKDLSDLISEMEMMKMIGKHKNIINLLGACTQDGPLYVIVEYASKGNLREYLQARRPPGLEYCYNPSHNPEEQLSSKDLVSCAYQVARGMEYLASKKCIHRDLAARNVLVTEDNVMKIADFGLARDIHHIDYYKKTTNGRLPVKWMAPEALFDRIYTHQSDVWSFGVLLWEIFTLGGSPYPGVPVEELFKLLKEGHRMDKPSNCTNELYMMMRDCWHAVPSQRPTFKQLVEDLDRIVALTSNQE
Chain of dephosphorylated FGFR1 (P11362 458-765): as above
Chain of recombinant human FGFR2 cytoplasmic domain (P21802 402-821): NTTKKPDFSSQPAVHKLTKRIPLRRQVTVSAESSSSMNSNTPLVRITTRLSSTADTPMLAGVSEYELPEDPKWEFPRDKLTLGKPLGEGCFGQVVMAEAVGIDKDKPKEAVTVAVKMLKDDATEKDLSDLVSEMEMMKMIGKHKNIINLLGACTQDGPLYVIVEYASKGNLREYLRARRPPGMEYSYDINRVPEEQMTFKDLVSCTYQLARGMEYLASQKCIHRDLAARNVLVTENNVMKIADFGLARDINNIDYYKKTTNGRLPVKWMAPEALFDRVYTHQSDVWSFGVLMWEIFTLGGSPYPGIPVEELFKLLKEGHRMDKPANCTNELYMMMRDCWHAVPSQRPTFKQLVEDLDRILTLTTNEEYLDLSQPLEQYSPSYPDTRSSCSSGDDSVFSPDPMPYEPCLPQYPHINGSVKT

C=CC(=O)N1CC(C(=O)N2CCC(n3cc(-c4cnc5ccc(Nc6cc(OC)cc(OC)c6)cc5n4)cn3)CC2)C1 [Example 1, 1-(3-(4-(4-(7-((3,5-dimethoxyphenyl)amino)quinoxalin-2-yl)-1H-pyrazol-1-yl)piperidine-1-carbonyl)azetidin-1-yl)prop-2-en-1-one] showed an IC50 (dephosphorylated FGFR1) of 22 nM, an IC50 (human wild type FGFR1) of 507 nM and an IC50 [1] of 11 nM. The “FGFR1 Enz kobs” value (FGFR1) was 0.00127 min⁻¹.
With C=CC(=O)N1CC(C(=O)N2CCC(n3ncc(-c4cnc5ccc(Nc6cc(OC)cc(OC)c6)cc5n4)c3C)CC2)C1 [Example 18, 1-(3-(4-(4-(7-((3,5-dimethoxyphenyl)amino)-quinoxalin-2-yl)-5-methyl-1H-pyrazol-1-yl)piperi-dine-1-carbonyl)azetidin-1-yl)prop-2-en-1-one] the IC50 (dephosphorylated FGFR1) was 244 nM, the IC50 (human wild type FGFR1) was 3660 nM and the IC50 [1] was 555 nM. The “FGFR1 Enz kobs” value (FGFR1) was 0.00096 min⁻¹.
C=CC(=O)N1CC(C(=O)N2CCN(c3ccc(-c4cnc5ccc(Nc6cc(OC)cc(OC)c6)cc5n4)cn3)CC2)C1 [Example 5, 1-(3-(4-(5-(7-((3,5-dimethoxyphenyl)amino)-quinoxalin-2-yl)pyridin-2-yl)piperazine-1-carbonyl)azetidin-1-yl)-prop-2-en-1-one] was tested, and the IC50 (dephosphorylated FGFR1) was 623 nM, the IC50 (human wild type FGFR1) was 2690 nM and the IC50 [1] was 365 nM. The “FGFR1 Enz kobs” value (FGFR1) was 0.0011 min⁻¹.
C=CC(=O)N1CC(C(=O)N2CC(n3cc(-c4cnc5ccc(Nc6cc(OC)cc(OC)c6)cc5n4)cn3)C2)C1 [Example 16, 1-(3-(3-(4-(7-((3,5-dimethoxyphenyl)amino)-quinoxalin-2-yl)-1H-pyrazol-1-yl)azetidine-1-carbonyl)azetidin-1-yl)-prop-2-en-1-one] was tested, and the IC50 (dephosphorylated FGFR1) was 30 nM, the IC50 (human wild type FGFR1) was 3000 nM and the IC50 [1] was 27 nM. The “FGFR1 Enz kobs” value (FGFR1) was 0.00151 min⁻¹.
With C=CC(=O)N1CC(F)(C(=O)N2CCN(c3ccc(-c4cnc5ccc(Nc6cc(OC)cc(OC)c6)cc5n4)cn3)CC2)C1 [Example 8, 1-(3-(4-(5-(7-((3,5-dimethoxyphenyl)amino)-quinoxalin-2-yl)pyridin-2-yl)piperazine-1-carbonyl)-3-fluoroazetidin-1-yl)-prop-2-en-1-one] the IC50 (dephosphorylated FGFR1) was 558 nM, the IC50 (human wild type FGFR1) was 1140 nM and the IC50 [1] was 744 nM. For the same compound, the “FGFR1 Enz kobs” value (FGFR1) was 0.00384 min⁻¹.
C=CC(=O)N1CC(O)(C(=O)N2CCC(n3cc(-c4cnc5ccc(Nc6cc(OC)cc(OC)c6)cc5n4)cn3)CC2)C1 [Example 26, 1-(3-(4-(4-(7-((3,5-dimethoxyphenyl)amino)quinoxalin-2-yl)-1H-pyrazol-1-yl)piperidine-1-carbonyl)-3-hydroxyazetidin-1-yl)prop-2-en-1-one] was tested, and the IC50 (dephosphorylated FGFR1) was 37 nM, the IC50 (human wild type FGFR1) was 1650 nM and the IC50 [1] was 121 nM. The “FGFR1 Enz kobs” value (FGFR1) was 0.00288 min⁻¹.
Compound COc1cc(Nc2ccc3ncc(-c4ccc(N5CCN(C(=O)C6(F)CN(C(=O)/C=C/CN(C)C)C6)CC5)nc4)nc3c2)cc(OC)c1 [Example 7, (E)-1-(3-(4-(5-(7-((3,5-dimethoxyphenyl)amino)-quinoxalin-2-yl)pyridin-2-yl)piperazine-1-carbonyl)-3-fluoroazetidin-1-yl)-4-(dimethylamino)but-2-en-1-one] has an IC50 (dephosphorylated FGFR1) of 342 nM, an IC50 (human wild type FGFR1) of 1530 nM and an IC50 [1] of 227 nM. The “FGFR1 Enz kobs” value (FGFR1) was 0.00659 min⁻¹.
C=CC(=O)N1CCC(C(=O)N2CCC(n3cc(-c4cnc5ccc(Nc6cc(OC)cc(OC)c6)cc5n4)cn3)CC2)CC1 [Example 3, 1-(4-(4-(4-(7-((3,5-dimethoxyphenyl)amino)-quinoxalin-2-yl)-1H-pyrazol-1-yl)piperidine-1-carbonyl)piperidin-1-yl)prop-2-en-1-one] gave an IC50 (dephosphorylated FGFR1) of 26 nM, an IC50 (human wild type FGFR1) of 350 nM and an IC50 [1] of 12 nM.
With C=CC(=O)N1CC(C#N)(C(=O)N2CCC(n3cc(-c4cnc5ccc(Nc6cc(OC)cc(OC)c6)cc5n4)cn3)CC2)C1 [Example 12, 1-acryloyl-3-(4-(4-(7-((3,5-dimethoxyphenyl)-amino)quinoxalin-2-yl)-1H-pyrazol-1-yl)-piperidine-1-carbonyl)-azetidine-3-carbonitrile] the IC50 (dephosphorylated FGFR1) was 48 nM, the IC50 (human wild type FGFR1) was 149 nM and the IC50 [1] was 33 nM. The “FGFR1 Enz kobs” value (FGFR1) was 0.0107 min⁻¹.
In the case of C=CC(=O)N1CC(OC)(C(=O)N2CCC(n3cc(-c4cnc5ccc(Nc6cc(OC)cc(OC)c6)cc5n4)cn3)CC2)C1 [Example 24, 1-(3-(4-(4-(7-((3,5-dimethoxyphenyl)amino)-quinoxalin-2-yl)-1H-pyrazol-1-yl)piperidine-1-carbonyl)-3-methoxy-azetidin-1-yl)prop-2-en-1-one], the IC50 (dephosphorylated FGFR1) is reported as 53 nM, the IC50 (human wild type FGFR1) is reported as 225 nM and the IC50 [1] is reported as 211 nM. The “FGFR1 Enz kobs” value (FGFR1) was 0.00223 min⁻¹.
In the case of COc1cc(Nc2ccc3ncc(-c4ccc(N5CCN(C(=O)C6(F)CN(C(=O)/C=C/CN(C)C)C6)CC5)nc4C)nc3c2)cc(OC)c1 [Example 13, (E)-1-(3-(4-(5-(7-((3,5-dimethoxyphenyl)amino)-quinoxalin-2-yl)-6-methylpyridin-2-yl)-piperazine-1-carbonyl)-3-fluoroazetidin-1-yl)-4-(dimethylamino)but-2-en-1-one], the IC50 (dephosphorylated FGFR1) is reported as 6620 nM, the IC50 [1] is reported as 1910 nM and the “FGFR1 Enz kobs” value (FGFR1) is reported as 0.00293 min⁻¹.
For C=CC(=O)N1CC(C(=O)N2CCN(c3cccc(-c4cnc5ccc(Nc6cc(OC)cc(OC)c6)cc5n4)c3)CC2)C1 [Example 25, 1-(3-(4-(3-(7-((3,5-dimethoxyphenyl)amino)-quinoxalin-2-yl)phenyl)-piperazine-1-carbonyl)-azetidin-1-yl)prop-2-en-1-one], the IC50 (dephosphorylated FGFR1) was 759 nM, the IC50 [1] was 1740 nM and the “FGFR1 Enz kobs” value (FGFR1) was 0.00404 min⁻¹.

From US12351571B2, “Substituted quinoxaline compounds as inhibitors of FGFR tyrosine kinases” (ARRAY BIOPHARMA INC., priority 2018, dated 2025)
